Measurements: ChEMBL document CHEMBL4431321, “Profiling of Flavonol Derivatives for the Development of Antitrypanosomatidic Drugs” (J Med Chem, 2016)
Active and inactive are the calls of the source. No cut-off for these calls is given here.

How the values were obtained:
[1] = biological target: T1, Cytochrome P450 1A2 (Homo sapiens, UniProt P05177); test: Inhibition of human microsomal CYP1A2 expressed in baculovirus infected BTI-TN-5B1-4 cells at 10 uM incubated for 30 mins by luciferase assay; format: ADME; conditions: bti-tn-5b1-4, 0.5 h, 10 µM
T1 sequence (P05177 whole entry): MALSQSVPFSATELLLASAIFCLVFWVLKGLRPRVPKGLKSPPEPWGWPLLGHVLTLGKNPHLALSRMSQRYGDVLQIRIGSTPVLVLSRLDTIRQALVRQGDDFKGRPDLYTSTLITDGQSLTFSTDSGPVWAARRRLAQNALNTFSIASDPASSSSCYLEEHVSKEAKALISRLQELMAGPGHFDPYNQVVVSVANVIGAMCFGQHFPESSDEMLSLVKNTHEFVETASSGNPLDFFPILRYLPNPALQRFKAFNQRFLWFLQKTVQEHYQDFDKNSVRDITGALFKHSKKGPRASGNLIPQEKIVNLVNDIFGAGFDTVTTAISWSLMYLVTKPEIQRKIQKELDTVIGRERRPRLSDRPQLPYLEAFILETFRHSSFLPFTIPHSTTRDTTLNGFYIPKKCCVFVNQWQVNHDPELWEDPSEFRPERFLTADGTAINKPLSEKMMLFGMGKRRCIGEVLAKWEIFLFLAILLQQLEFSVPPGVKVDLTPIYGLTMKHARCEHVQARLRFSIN

[2] = tested on: A549; test: Cytotoxicity against human A549 cells at 100 uM after 48 hrs by cell titer glo assay; format: cell-based; conditions: a549, 48 h
[3] = tested on: WI-38; test: Cytotoxicity against human WI38 cells at 100 uM after 48 hrs by cell titer glo assay; format: cell-based; conditions: wi-38, 48 h
[4] = tested on: 786-0; test: Mitochondrial toxicity in human 786-O cells incubated for 6 hrs by mitotracker red staining based-uptake method; format: cell-based; conditions: 786-0, 6 h
[5] = Cytotoxicity against human THP1 cells after 72 hrs by MTT assay; format: cell-based; conditions: THP-1 cells; for MNTC at 72 h: read-out: NOAEL
[6] = in vitro; conditions: human, THP-1 cells
Description: Selectivity index, ratio of CC50 for human THP1 cells to EC50 for Trypanosoma brucei brucei Lister 427 bloodstream forms

[7] = tested on: Trypanosoma brucei brucei; test: Antitrypanosomal activity against Trypanosoma brucei brucei Lister 427 bloodstream forms at 10 uM after 72 hrs by resazurin-based assay; format: functional, organism-based
[8] = tested on: Trypanosoma brucei; test: Inhibition of Trypanosoma brucei PTR1 at 50 uM using H2B as substrate incubated for 10 mins followed by addition of NADPH measured for 10 to 50 mins
[9] = biological target: Thymidylate synthase (Homo sapiens) (UniProt P04818); test: Inhibition of human thymidylate synthase at 50 uM using folic aid as substrate by spectrophotometric analysis
Thymidylate synthase (Homo sapiens), sequence (P04818 2-313 limits assumed): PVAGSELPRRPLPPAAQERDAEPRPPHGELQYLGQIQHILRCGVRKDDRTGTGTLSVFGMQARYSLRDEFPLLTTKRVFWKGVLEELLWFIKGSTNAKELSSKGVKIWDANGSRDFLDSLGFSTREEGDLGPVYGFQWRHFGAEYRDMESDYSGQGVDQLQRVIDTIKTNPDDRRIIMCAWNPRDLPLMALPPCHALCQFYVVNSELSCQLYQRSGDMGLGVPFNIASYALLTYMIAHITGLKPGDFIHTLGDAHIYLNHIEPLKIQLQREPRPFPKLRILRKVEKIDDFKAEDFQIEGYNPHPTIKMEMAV

[10] = tested on: Trypanosoma brucei; test: Inhibition of Trypanosoma brucei DHFR at 50 uM using folic aid as substrate by spectrophotometric analysis
[11] = tested on: Trypanosoma brucei brucei; test: Antitrypanosomal activity against Trypanosoma brucei brucei Lister 427 bloodstream forms assessed as synergy coefficient at 1.25 to 5 uM after 72 hrs in presence of MTX by resazurin-based assay; format: functional
[12] = tested on: Leishmania mexicana; test: Inhibition of Leishmania mexicana DHFR at 50 uM using folic aid as substrate by spectrophotometric analysis
[13] = biological target: T2, Dihydrofolate reductase (Homo sapiens) (UniProt P00374); test: Inhibition of human DHFR at 50 uM using folic aid as substrate by spectrophotometric analysis
T2 sequence (whole entry): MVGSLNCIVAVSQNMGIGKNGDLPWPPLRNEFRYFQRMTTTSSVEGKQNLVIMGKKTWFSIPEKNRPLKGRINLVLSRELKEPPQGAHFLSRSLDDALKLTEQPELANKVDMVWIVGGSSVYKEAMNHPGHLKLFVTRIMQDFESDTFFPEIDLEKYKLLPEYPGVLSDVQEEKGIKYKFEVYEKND

[14] = tested on: Trypanosoma brucei brucei; test: Antitrypanosomal activity against Trypanosoma brucei brucei Lister 427 bloodstream forms after 72 hrs by resazurin-based assay; format: functional, organism-based; conditions: Lister 427, 72 h
[15] = (§1) Inhibition of Trypanosoma brucei PTR1 using H2B as substrate incubated for 10 mins followed by addition of NADPH measured for 10 to 50 mins
[16] = biological target: Aurora kinase B (Homo sapiens) (UniProt Q96GD4); test: Inhibition of recombinant full-length human aurora B kinase expressed in baculovirus system using MBP as substrate at 10 uM incubated for 45 mins by ADP-glo kinase assay
Aurora kinase B (Homo sapiens), sequence (Q96GD4 whole entry): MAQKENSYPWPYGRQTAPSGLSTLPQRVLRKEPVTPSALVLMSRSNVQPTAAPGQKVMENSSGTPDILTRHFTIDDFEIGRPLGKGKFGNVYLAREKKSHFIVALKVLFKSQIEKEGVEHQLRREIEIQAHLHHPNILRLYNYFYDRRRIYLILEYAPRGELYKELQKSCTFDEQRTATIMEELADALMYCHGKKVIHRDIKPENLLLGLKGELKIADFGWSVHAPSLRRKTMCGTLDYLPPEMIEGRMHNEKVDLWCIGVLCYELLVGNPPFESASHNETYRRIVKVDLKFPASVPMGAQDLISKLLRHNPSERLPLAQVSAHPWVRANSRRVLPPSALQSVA

[17] = tested on: Leishmania mexicana; test: Inhibition of Leishmania mexicana PTR1 at 50 uM using H2B as substrate incubated for 10 mins followed by addition of NADPH measured for 10 to 50 mins
[18] = tested on: Leishmania infantum; test: Antiparasitic activity against Leishmania infantum MOM/MA67ITMAP263 amastigotes infected in human THP1 cells at 10 uM after 72 hrs by steady-glo luminescence assay; format: functional
[19] = tested on: Trypanosoma brucei; test: as §1

| Structure (SMILES) | inhibition (INH) [1] | Activity [2] | Activity [3] | Activity [4] | MNTC at 72 h [5] [µM] | selectivity ratio [6] | Activity [7] | inhibition [8] | IC50 [14] [µM] | also measured |
| --- | --- | --- | --- | --- | --- | --- | --- | --- | --- | --- |
| COc1ccc(-c2oc3cc(OC)ccc3c(=O)c2O)cc1 | Not Active | Non-Toxic | Non-Toxic | Non-Toxic | 10 | 9 | Active | – | – | – |
| O=c1c(O)c(-c2cccc(O)c2)oc2cc(O)ccc12 | Not Active | Non-Toxic | Non-Toxic | Non-Toxic | – | 6 | Active | 47% | – | inhibition [9]: inactive; inhibition [10]: < 25%; CI [11]: >1; inhibition [12]: < 25%; inhibition [13]: < 30%; CC50 at 72 h [5]: 80 µM; EC50 [14]: 12.3 µM |
| O=c1c(O)c(-c2ccccc2O)oc2cc(O)cc(O)c12 [DATISCETIN] | – | – | – | – | – | – | – | – | 27 | IC50 [15]: 76.9 µM |
| O=c1c(O)c(-c2ccc(O)c(O)c2)oc2cc(O)ccc12 [FISETIN] | – | Non-Toxic | Non-Toxic | Non-Toxic | – | – | – | 53% | – | inhibition [9]: inactive; inhibition [10]: < 25%; inhibition [12]: < 25%; inhibition [16]: Active; inhibition [13]: < 30% |
| O=c1c(O)c(-c2ccccc2)oc2ccccc12 [FLAVONOL] | – | – | – | – | – | – | – | – | 9.1 | IC50 [15]: 12.8 µM |
| COc1cccc(-c2oc3ccccc3c(=O)c2O)c1 | Not Active | Non-Toxic | Non-Toxic | Non-Toxic | 10 | 4 | Active | inactive | – | inhibition [17]: inactive |
| COc1ccc2c(=O)c(O)c(-c3cc(OC)c(OC)c(OC)c3)oc2c1 | Not Active | Non-Toxic | Non-Toxic | Non-Toxic | 20 | 17 | – | inactive | – | Activity [18]: 35% |
| COc1ccc2c(=O)c(O)c(-c3ccc(OC)c(OC)c3)oc2c1 | Not Active | Non-Toxic | Non-Toxic | Non-Toxic | 25 | 8 | Active | – | – | – |
| O=c1c(O)c(-c2ccc(O)c(O)c2)oc2ccc(O)cc12 | Not Active | Non-Toxic | Non-Toxic | Non-Toxic | 10 | 6 | Active | – | – | inhibition [9]: inactive; inhibition [10]: < 25%; inhibition [12]: < 25%; inhibition [13]: < 30%; EC50 [14]: 1.36 µM |
| O=c1c(O)c(-c2cccc(O)c2)oc2ccccc12 | Not Active | Non-Toxic | Non-Toxic | Non-Toxic | 20 | 4 | Active | 35% | – | inhibition [9]: inactive; inhibition [10]: 42 to 43%; inhibition [12]: 42 to 43%; inhibition [17]: 35%; inhibition [13]: < 30%; EC50 [14]: 5.18 µM |
| COc1ccc2oc(-c3ccc(OC)c(OC)c3)c(O)c(=O)c2c1 | Not Active | Non-Toxic | Non-Toxic | Non-Toxic | 10 | 5 | Active | – | – | CI [11]: >1 |
| COc1cccc(-c2oc3cc(OC)ccc3c(=O)c2O)c1 | Not Active | Non-Toxic | Non-Toxic | Non-Toxic | 10 | 8 | Active | – | – | – |
| O=c1c(O)c(-c2ccc(O)cc2)oc2cc(O)cc(O)c12 [KAEMPFEROL] | – | – | – | – | – | – | – | – | 9 | IC50 [15]: 28 µM |
| COc1cc(-c2oc3cc(O)cc(O)c3c(=O)c2O)ccc1O [ISORHAMNETIN] | – | – | – | – | – | – | – | – | 11.2 | IC50 [15]: 13.9 µM |
| O=c1c(O)c(-c2ccc(O)cc2)oc2ccc(O)cc12 | Not Active | Non-Toxic | Non-Toxic | Non-Toxic | 20 | 7 | Active | 3% | – | inhibition [9]: inactive; inhibition [10]: < 25%; CI [11]: >1.5; inhibition [12]: < 25%; inhibition [13]: < 30%; EC50 [14]: 2.32 µM |
| O=c1c(O)c(-c2ccc(O)c(O)c2)oc2cc(O)cc(O)c12 | – | – | – | – | – | – | – | – | < 30 | inhibition [19]: inactive |
| C[C@@H]1O[C@@H](OC[C@H]2O[C@@H](Oc3c(-c4ccc(O)c(O)c4)oc4cc(O)cc(O)c4c3=O)[C@H](O)[C@@H](O)[C@@H]2O)[C@H](O)[C@H](O)[C@H]1O | – | – | – | – | – | – | – | – | < 30 | inhibition [19]: inactive |
| COc1cccc(-c2oc3ccc(OC)cc3c(=O)c2O)c1 | Not Active | Non-Toxic | Non-Toxic | Non-Toxic | 10 | 7 | Active | 4% | – | CI [11]: >1; inhibition [17]: inactive |
